Data on five compounds can be found in patent US20030195168A1, “Therapeutic agents - III” (priority 2000, published 2003).

One assay concerns the target T1, PKCα (Homo sapiens, UniProt P17252).
T1 construct: host or cells: HeLa cells
The format is cell-based. To be noted: HeLa. On the procedure: (§1) Five EGFP-PKC isoforms (Clontech) were available for this experiment, enabling the screening of the three predominant PKC families (i.e. classical, novel and atypical PKCs). The members of the various PKC families are α, β, and γ (classical), θ (novel) and ζ (atypical).
(§2) HeLa cells were plated out in a 24-well plate containing coverslips and transfected with PKC isoforms fused to EGFP, using a commercially available effectine-transfection kit (QIAGEN, Pty. Ltd.). Cells were exposed to the transfection reagents for 16-24 hr. Subsequently, transfected cells were treated for one hour with TPA (100 ng/mL), bryostatin-1 (5 pg/mL), PEP003 (2.25 μg/mL; 5 μM) or PEP005 ([…]) 1.5 μM). Following treatment, cells were fixed on coverslips and mounted on glass slides. The slides were subsequently examined visually by fluorescence microscopy, photographed, and over 150 cells were counted/treatment/PKC isoform. Counted cells were classified according to the localisation of the PKC-EGFP fluorescence as either cytoplasmic or plasma membrane using ImagePro™ 4.1 (FIG. 5). […] The number of these cells was also counted.

The next assay addresses T2, PKCβ (Homo sapiens, UniProt P05771).
T2 construct: host or cells: HeLa cells
The experiment in a line: EGFP-PKC isoform translocation in HeLa cells. To be noted: for number of PKCβ transfected cells with Golgi-like fluorescence: one hour treatment; for translocation of PKCβ to the plasma membrane: one hour, TPA 100 ng/mL, bryostatin-1 5 pg/mL, PEP003 2.25 μg/mL (5 μM), PEP005 670 μg/mL (1.5 μM). The format is cell-based. How it is done:
as §1
as §2, with “counted. Results are presented as an average and standard deviation of percentages of cells (Table 1).” for “counted.”

A further assay concerns the target T3, PKCγ (Homo sapiens, UniProt P05129).
T3 construct: host or cells: HeLa cells
Put plainly: EGFP-PKC isoform translocation in HeLa cells. In kind it is cell-based. On the procedure:
as §1
as §2, with “counted. Results are presented as an average and standard deviation of percentages of cells (Table 1).” for “counted.”

The next assay addresses T4, PKCζ (Homo sapiens, UniProt Q05513).
T4 construct: host or cells: HeLa cells
T4 sequence (Q05513 1-592): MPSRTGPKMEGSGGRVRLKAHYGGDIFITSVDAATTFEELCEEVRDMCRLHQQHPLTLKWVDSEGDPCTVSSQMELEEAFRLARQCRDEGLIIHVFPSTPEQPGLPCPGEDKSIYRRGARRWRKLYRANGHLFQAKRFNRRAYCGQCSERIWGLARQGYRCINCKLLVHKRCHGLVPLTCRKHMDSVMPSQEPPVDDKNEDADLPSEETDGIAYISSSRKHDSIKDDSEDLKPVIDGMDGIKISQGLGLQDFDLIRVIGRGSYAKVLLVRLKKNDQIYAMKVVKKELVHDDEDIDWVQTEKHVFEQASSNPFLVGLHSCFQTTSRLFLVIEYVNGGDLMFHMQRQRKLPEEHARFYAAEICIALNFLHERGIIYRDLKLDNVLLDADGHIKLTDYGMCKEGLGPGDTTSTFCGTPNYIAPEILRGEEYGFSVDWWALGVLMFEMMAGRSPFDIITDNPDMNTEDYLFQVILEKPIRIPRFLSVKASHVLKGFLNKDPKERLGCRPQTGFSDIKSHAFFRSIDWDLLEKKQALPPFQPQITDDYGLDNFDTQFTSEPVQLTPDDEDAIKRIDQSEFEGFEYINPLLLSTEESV
Put plainly: EGFP-PKC isoform translocation in HeLa cells. To be noted: one hour, TPA 100 ng/mL, bryostatin-1 5 pg/mL, PEP003 2.25 μg/mL (5 μM), PEP005 670 μg/mL (1.5 μM). In kind it is cell-based. On the procedure: as §1
as §2, with “counted. Results are presented as an average and standard deviation of percentages of cells (Table 1).” for “counted.”

Another assay has as its target T5, PKCθ (Homo sapiens, UniProt Q04759).
T5 construct: host or cells: HeLa cells
Put plainly: EGFP-PKC isoform translocation in HeLa cells. In kind it is cell-based. To be noted: one hour, TPA 100 ng/mL, bryostatin-1 5 pg/mL, PEP003 2.25 μg/mL (5 μM), PEP005 670 μg/mL (1.5 μM). How it is done:
as §1
as §2, with “counted. Results are presented as an average and standard deviation of percentages of cells (Table 1).” for “counted.”

The test system of another assay is adenovirus 5. Put plainly: Adenovirus 5 replication in human melanoma cells. In kind it is cell-based. To be noted: 2 days. The text has this:
Human melanoma cells were infected with ten-fold dilutions of adenovirus 5 in culture, treated with dilutions of PEP005, PEP006, PEP008 and PEP010 and adenovirus replication determined 2 days later by immunhistochemical detection of virus-replicating cells.

Assay [1] relates to peripheral blood mononuclear cells (PBMCs). Put plainly: Phagocytosis with fluorescent beads. Conditions: whole heparinized blood, 30 min at 37° C. The format is cell-based. On the procedure: Phagocytosis by peripheral blood mononuclear cells (PBMCs) was assayed (Steinkamp et al., 1982) using 1 μm Fluoresbrite™ yellow-green fluorescent latex spheres (Polysciences, Inc., Warrington, Pa.). A sample of whole, heparinized blood was treated with drug and 5×10E7 fluorescent latex beads in 10 μL of PBS added per mL of suspension. Cells were incubated and maintained in suspension for 30 min by means of a shaker platform at 37° C. The stirnulated and non-stimulated samples were then lysed to isolate PBMCs. The PBMCs were run on the flow cytometer measuring FITC (excitation at 488 nm, emission at 525±20 nm), gated for fluorescence (phagocytosed spheres) and light scatter (cell size).

The test system of assay [2] is Peripheral blood mononuclear cells (PBMC). The experiment in a line: Respiratory burst (H2O2) in PBMC, DCFH-DA flow cytometry. The format is cell-based. On the procedure:
Experiments were also carried out using 2′,7′-dichlorofluorescein diacetate (DCFH-DA) to measure the production of H2O2.(J P Robinson, Oxidative burst methods, in Handbook of Flow Cytometry Methods, Wiley-Liss Inc, pp147-149, 1993). H2O2 oxidizes the non-fluorescent probe (DCFH-DA) to a fluorescent probe that can then be detected by a flow cytometer. Peripheral blood mononuclear cells (PBMC) were extracted from a donor blood sample by lysis of heparinized blood and used in a suspension of 1×10^6/mL of phosphate buffer, pH 7.3. The cells were then incubated with DCFH-DA (1 μL/mL of 20 mM stock) for 15 minutes to allow it to be taken up and trapped by hydrolysis with cellular esterases. The cells were then stimulated by test compounds for 15 min at 37° C. Controls included in the experiment were unloaded control (cells with no DCFH-DA) and loaded control (cells with DCFH-DA, but no stimulation). These were used to monitor the non-specific oxidation of unstimulated cells. The cells were then analyzed on the flow cytometer (excitation at 488 nm, emission at 525±20 nm), gating each sample for individual cell populations-granulocytes, monocytes and lymphocytes (Table 3).
(Flow cytometry measures light scatter and fluorescence of single cells or particles in a stream.)

The subject of assay [3] is phorbol ester binding site of PKC. Put plainly: [3H]-phorbol dibutyrate competition assay on rat brain homogenate. On the procedure:
A competition assay was performed to determine whether the diterpene esters of the instant invention bind to the phorbol ester binding site of PKC. […] This binding was not blocked by co-incubation with bisindolylmaleimide.

The test system of the next assay is MM96L cells. Put plainly: Effect of Euphorbiaceae saps on MM96L cells (cytotoxicity, bipolar dendritic phenotype). To be noted: 1 μg/mL or 10 μg/mL. The format is cell-based. On the procedure: Sap was collected from Synadenium grantii, Synadenium compactum, Mondenium lugardae, Mondenium guentheri, Endadenium gossweileni, and E. peplus and serially diluted ten-fold up to 10^−7into sterile 1.5 mL Eppendorf™ tubes using growth medium. […] After 3 days, cells were examined for cytotoxicity or differentiation to a bipolar dendritic phenotype.

In assay [4] the test system is MM96L human melanoma cells. The experiment in a line: Leukocyte killing of tumor cells, [3H]-thymidine labelling. In kind it is cell-based. To be noted: 100:1 effector:target, 48 hr. On the procedure: (§3) Leukocytes obtained by lysis of human peripheral blood were added to 5000 MM96L human melanoma cells or 7000 neonatal foreskin fibroblasts per microtitre well at effector: target ratios of 1000, 100 and 10:1. Ing9 (60 ng/mL) was added and after 48 hr incubation the cultures were washed and labelled with [3H]-thymidine for 2 hr. […] Untreated leukocytes had no effect on cell survival.
(§4) Leukocytes obtained by lysis of human peripheral blood were added to 5000 MM96L human melanoma cells or 7000 neonatal foreskin fibroblasts per microtitre well at effector: target ratios of 1000, 100 and 10:1. The target cells had been treated with 60 ng/mL PEP008 for 20 hr beforehand, and washed and the medium replaced before the leukocytes were added. After 48 hr incubation with the leukocytes the cultures were washed and labelled with [3H]-thymidine for 2 hr. […] Untreated leukocytes had no effect on cell survival.

The test system of assay [5] is neonatal foreskin fibroblasts. The experiment in a line: Leukocyte killing of normal cells, [3H]-thymidine labelling. The format is cell-based, human. Conditions: 100:1 effector:target, 48 hr. On the procedure: as §3, §4
The next assay deals with rat brain PKC. Put plainly: PepTag non-radioactive PKC kinase activity assay. To be noted: FIG. 1; TPA 100-0.01 ng/ml; ether extract final dilution 1 in 5; aqueous layer and crude sap diluted 1/25.
The mark [6] stands for this setting: target cells pre-treated with 60 ng/mL for 20 hr, washed.

T2 sequence (P05771 whole entry, species assumed): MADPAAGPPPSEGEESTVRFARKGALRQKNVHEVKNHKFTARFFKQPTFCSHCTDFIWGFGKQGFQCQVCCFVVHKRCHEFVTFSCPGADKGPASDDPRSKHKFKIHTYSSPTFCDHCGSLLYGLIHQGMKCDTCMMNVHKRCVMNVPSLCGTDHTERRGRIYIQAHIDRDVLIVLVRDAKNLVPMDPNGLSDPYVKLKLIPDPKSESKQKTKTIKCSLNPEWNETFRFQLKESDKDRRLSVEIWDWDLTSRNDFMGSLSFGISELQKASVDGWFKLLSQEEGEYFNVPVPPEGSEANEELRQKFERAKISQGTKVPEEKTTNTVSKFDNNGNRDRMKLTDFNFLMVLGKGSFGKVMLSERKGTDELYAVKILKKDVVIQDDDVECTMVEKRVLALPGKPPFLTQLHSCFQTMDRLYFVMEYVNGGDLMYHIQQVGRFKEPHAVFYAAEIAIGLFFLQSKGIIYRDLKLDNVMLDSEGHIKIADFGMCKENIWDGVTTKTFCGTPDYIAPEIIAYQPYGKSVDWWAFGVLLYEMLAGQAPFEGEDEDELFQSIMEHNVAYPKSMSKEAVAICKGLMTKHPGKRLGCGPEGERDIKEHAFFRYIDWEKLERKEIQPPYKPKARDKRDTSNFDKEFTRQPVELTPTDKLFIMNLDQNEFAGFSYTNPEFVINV
T5 sequence (Q04759 whole entry): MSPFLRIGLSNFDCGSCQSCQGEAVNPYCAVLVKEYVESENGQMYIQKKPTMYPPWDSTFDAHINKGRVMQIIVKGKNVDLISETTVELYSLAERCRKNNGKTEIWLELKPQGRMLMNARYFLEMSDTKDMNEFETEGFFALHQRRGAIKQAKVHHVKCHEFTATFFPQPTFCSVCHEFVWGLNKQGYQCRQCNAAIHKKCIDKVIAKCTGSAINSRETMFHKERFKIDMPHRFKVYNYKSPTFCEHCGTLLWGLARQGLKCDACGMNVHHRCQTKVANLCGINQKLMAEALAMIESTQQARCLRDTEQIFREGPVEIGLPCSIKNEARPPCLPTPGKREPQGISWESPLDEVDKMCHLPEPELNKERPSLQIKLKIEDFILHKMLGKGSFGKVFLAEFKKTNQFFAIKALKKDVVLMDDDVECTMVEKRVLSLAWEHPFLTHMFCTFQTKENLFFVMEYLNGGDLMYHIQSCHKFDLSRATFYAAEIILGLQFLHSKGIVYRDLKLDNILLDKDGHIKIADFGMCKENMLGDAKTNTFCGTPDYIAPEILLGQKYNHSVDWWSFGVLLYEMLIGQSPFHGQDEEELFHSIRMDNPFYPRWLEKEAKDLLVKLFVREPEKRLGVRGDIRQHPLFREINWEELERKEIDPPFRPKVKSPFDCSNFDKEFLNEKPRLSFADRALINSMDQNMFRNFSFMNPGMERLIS
Method for rat brain PKC: The kinase activity of rat brain PKC (Promega) was determined using the Peptag™ Non-Radioactive Protein Kinase Kit (Promega). Using agarose gel electrophoresis the technique visualises the opposing electrostatic charge of a fluorescently labeled peptide ([sequence]) compared to the phosphorylated version of the same peptide.
The reaction mixture was separated by gel electrophoresis, showing migration of the unreacted substrate (a) to the anode (top), and the product (b), which is more negatively charged because of phosphorylation by PKC, moving towards the cathode (bottom).

Turning to `C/C=C(/C)C(=O)O[C@H]1C(C)=C[C@]23C(=O)[C@@H](C=C(CO)[C@@H](O)[C@]12O)[C@H]1[C@@H](C[C@H]3C)C1(C)C` [PEP005, 20-hydroxy-ingenol-3-angelate], the “number of PKCα transfected cells displaying Golgi-like fluorescence” value on PKCα (one hour treatment) is “increase in the number of cells displaying Golgi-like fluorescence”. Moreover, the “translocation of PKCα to the plasma membrane” value on PKCα (one hour, TPA 100 ng/mL, bryostatin-1 5 pg/mL, PEP003 2.25 μg/mL (5 μM)) is recorded as “translocated from the cytoplasm to the plasma membrane”. On PKCβ, the “number of PKCβ transfected cells with Golgi-like fluorescence” value was “decreases the number of cells with PKCβ concentrated in the Golgi” and the “translocation of PKCβ to the plasma membrane” value was “translocated from the cytoplasm to the plasma membrane”. For the same compound, the “number of PKCγ transfected cells displaying Golgi-like fluorescence” value at PKCγ (one hour treatment) is “increase in the number of cells displaying Golgi-like fluorescence”. Moreover, the “translocation of PKCγ to the plasma membrane” value on PKCγ (one hour, TPA 100 ng/mL, bryostatin-1 5 pg/mL, PEP003 2.25 μg/mL (5 μM), PEP005 670 μg/mL (1.5 μM)) is recorded as “translocated from the cytoplasm to the plasma membrane”. In addition, the “translocation of PKCζ” value at PKCζ was “fail to induce translocation”. For the same compound, the “translocation of PKCθ” value on PKCθ was “does not induce any change”. The “increase of adenovirus replication (number of stained cells)” value in the assay with adenovirus 5 (67 ng/mL) was 344%. Further, in assay [1], the “stimulation of phagocytosis of fluorescent latex beads” value is “stimulate phagocytosis in PBMCs”.

Consider `CCC/C=C/C=C/C(=O)O[C@H]1/C(=C/C(=O)OC)C[C@H]2C[C@H]([C@@H](C)O)OC(=O)C[C@H](O)C[C@@H]3C[C@H](OC(C)=O)C(C)(C)[C@](O)(C[C@@H]4C/C(=C/C(=O)OC)C[C@H](/C=C/C(C)(C)[C@]1(O)O2)O4)O3` [bryostatin-1], for which, at PKCβ, the “number of PKCβ transfected cells with Golgi-like fluorescence” value is “decreases the number of cells with PKCβ concentrated in the Golgi” and the “translocation of PKCβ to the plasma membrane” value is recorded as “but not with bryostatin-1”. Moreover, the “translocation of PKCζ” value on PKCζ is recorded as “fail to induce translocation”. Also, the “translocation of PKCθ” value on PKCθ was “translocated”. Further, the “induction of a respiratory burst (H2O2, DCFH-DA)” value in [2] (15 min at 37° C., granulocytes, monocytes, lymphocytes) is recorded as “All compounds except Bryostatin induced a respiratory burst”.

bisindolylmaleimide: the “binding to the phorbol ester binding site of PKC” value in [3] was “does not”. For the same compound, the “block of the respiratory burst by PKC inhibitor” value in assay [2] (10 μg/mL or 1 μg/mL, added at the same time as test compounds) is “blocked the respiratory burst”. In addition, the “effect of PKC inhibitor on sap-induced differentiation of MM96L cells” value in the assay with MM96L cells was “this differentiation is inhibited”.

Consider `C/C=C(/C)C(=O)O[C@H]1C(C)=C[C@]23C(=O)[C@@H](C=C(COC(C)=O)[C@@H](O)[C@]12O)[C@H]1[C@@H](C[C@H]3C)C1(C)C` [PEP008, 20-O-acetyl-ingenol-3-angelate], for which the “increase of adenovirus replication (number of stained cells)” value in the assay with adenovirus 5 (226 ng/mL) was determined as 248%. Also, the “stimulation of phagocytosis of fluorescent latex beads” value in assay [1] is recorded as “stimulate phagocytosis in PBMCs”. Also, the figures for the “survival of melanoma cells” value in assay [4] (60 ng/mL added with leukocytes) and in assay [4] (setting [6]) were 9% and 12%, respectively. The “survival of normal fibroblasts” value in assay [5] (60 ng/mL added with leukocytes) and in assay [5] (setting [6]) was 100% each time.

For the compound phosphatidyl serine, the “activation of PKC (phosphorylation of fluorescent PepTag substrate)” value with rat brain PKC is “strong activation”.
